This note sets out measurements from US6939990B2, “Derivatives of dicarboxylic acid having pharmaceutical properties” (Bayer Aktiengesellschaft, priority 2001, dated 2005).

Structures can show the parent of a compound that is named as a salt.

Test system in the first series: not given
Test: not given
Settings: not given
As a reminder, the melting point is the temperature, or range, at which the solid turns liquid. For `O=C(O)CCCCN(CCc1cc(F)ccc1COc1ccc(C2CCCCC2)cc1)Cc1ccc(C(=O)O)cc1` [Example 12, 4-{[(4-Carboxybutyl)(2-{2-[(4-cyclohexylphenoxy)methyl]-5-fluorophenyl}ethyl)amino]methyl}benzoic acid], the melting point was > 250 °C.

The next series relates to arteria saphena rings. The series can be described thus: Vasorelaxant effect in vitro (phenylephrine-contracted arteria saphena rings). The series is classed as cell-based, Rabbits. Particulars: Oryctolagus cuniculus; rabbit arteria saphena rings, contractions generated by phenylephrine, 0.1% DMSO; read-out: IC50, concentration necessary to reduce the height of the contraction of the control value by 50%. The protocol: Vasorelaxant Effect In Vitro
Rabbits are anesthetized or killed by intravenous injection of thiopental sodium (about 50 mg/kg) and exsanguinated. The arteria saphena is removed and divided into rings 3 mm wide. The individual rings are in each case mounted on a pair of hooks of triangular shape, open at the end and made of special wire (Remanium®) having a diameter of 0.3 mm. Under pretension, each ring is introduced into a 5 ml organ bath containing carbogen-gassed Krebs-Henseleit solution at 37° C. with the following composition (mM): NaCl: 119; KCl: 4.8; CaCl2×2H2O: 1; MgSO4×7H2O: 1.4; KH2PO4: 1.2; NaHCO3: 25; glucose: 10; bovine serum albumin: 0.001%. The force of contraction is detected with Statham UC2 cells, amplified and digitized via A/D converters (DAS-1802 HC, Keithley Instruments, Munich) and recorded in parallel on chart recorders. Contractions are generated by adding phenylephrine.
After several (generally 4) control cycles, the substance to be investigated is added in each further run in increasing dosage in each case, and the height of the contraction reached under the influence of the test substance is compared with the height of the contraction reached in the last preceding run. The concentration necessary to reduce the height of the control value by 50% (IC50) is calculated from this. The standard application volume is 5 μl. The DMSO content in the bath solution corresponds to 0.1%.
On to `O=C(O)CCCCN(CCc1ccccc1OC(F)(F)c1ccc(-c2ccc(C(F)(F)F)cc2)cc1)Cc1ccc(C(=O)O)cc1` [Example 6, 4-({(4-Carboxybutyl)[2-(2-{difluoro[4′-(trifluoromethyl)-1,1′-biphenyl-4-yl]methoxy}phenyl)ethyl]amino}methyl)benzoic acid], for which the IC50 was found to be 0.041 nM.

For `O=C(O)CCCCN(CCc1cc(F)ccc1COc1ccc(-c2ccc(C(F)(F)F)cc2)cc1)Cc1ccc(C(=O)O)cc1` [Example 17], the IC50 amounted to 0.26 nM.

Take `O=C(O)CCCCN(Cc1ccc(C(=O)O)cc1)Cc1cccc(Oc2ccc(C3CCCCC3)cc2)c1` [Example 3, 4-({(4-Carboxybutyl)[3-(4-cyclohexylphenoxy)benzyl]amino}methyl)-benzoic acid hydrochloride]: the IC50 was 36 nM.

`O=C(O)CCCCN(Cc1ccc(C(=O)O)cc1)Cc1cccc(Oc2ccc(-c3ccc(C(F)(F)F)cc3)cc2)c1` [Example 2]: the IC50 was found to be 55 nM.

Regarding `O=C(O)CCCCN(CCc1cc(F)ccc1COc1ccc(C2CCCCC2)cc1)Cc1ccc(C(=O)O)cc1` [Example 12, 4-{[(4-Carboxybutyl)(2-{2-[(4-cyclohexylphenoxy)methyl]-5-fluorophenyl}ethyl)amino]methyl}benzoic acid], the IC50 is 0.4 nM.
